Source: patent publication US20260317277A1, “ARYLALKYLAMINE COMPOUND, AND PREPARATION METHOD THEREFOR AND USE THEREOF” (RENHE YIKANG GROUP CO., LTD., priority 2024, published 2026)

How the values were obtained:
[1] = Pharmacokinetic study in SD rats; type: in vivo, Male Sprague-Dawley (SD) rats; details: male SD rats, oral gavage; Evocalcet = 100
Experimental: Animal Information: Male Sprague-Dawley (SD) rats, aged 7-8 weeks, were used. Each group consisted of 3-5 rats.
Dosing Information: The rats were fasted for more than 12 hours prior to administration. A single dose was administered via oral gavage.
Blood Sampling Time Points: Blood samples were collected from the tail vein before administration and at 0.25, 0.5, 1, 2, 4, 6, 8, and 24 hours post-administration. A volume of 100 μL of blood was collected at each time point.
Sample Processing and Storage: The blood samples were transferred into 1.5 mL microcentrifuge tubes, with 50 μL per tube (two tubes per sample). Centrifugation was completed within 2 hours. Whole blood samples were kept on ice prior to centrifugation. Centrifugation was performed at 4000 rpm, 2-8° C., for 10 minutes. After collecting the supernatant, it was stored at −80° C. or below if not analyzed immediately.
Column: An InfinityLab Poroshell 120 SB-C18 column (2.1×100 mm, 2.7 μm) was used. Column Temperature: The temperature was maintained at 30° C. Flow Rate: The flow rate was set at 0.3 mL/min. Run Time: The total run time was 9.5 minutes. Post-run Time: A post-run time of 2 minutes was applied. Injection Volume: An injection volume of 2 μL was used. Mobile Phase: A mixture of methanol and 0.1% formic acid was employed as the mobile phase. Gradient Elution: Gradient elution was performed according to the table below.
b) the Mass Spectrometry Conditions were Set as Follows: […]
Preparation of Standard Solutions: Appropriate volumes of Evocalcet, Compound 2, and Compound 3 stock solutions were precisely measured and diluted with 50% methanol to prepare standard solutions with concentrations of 80, 200, 1000, 5000, 10000, 20000, and 40000 ng/mL.
Preparation of Internal Standard (Clenbuterol Hydrochloride) Solution: 10 mg of clenbuterol hydrochloride was accurately weighed and transferred into a 10 mL volumetric flask. […] An appropriate volume of the stock solution was precisely measured and diluted with methanol to prepare a 2000 ng/mL internal standard working solution. […]

[2] = Review Report on Evocalcet Tablets 1 mg and 2 mg, March 2018; cited from earlier work

| Relative bioavailability (%) [1] [%] | SMILES | adverse reactions [2] |
| --- | --- | --- |
| 136 | C[C@@H](N[C@H]1CCN(c2ccc(CC(=O)O)cc2F)C1)c1cccc2ccccc12 [Compound 2, 2-(3-fluoro-4-((S)-3-(((R)-1-(naphthalen-1-yl)ethyl)amino)pyrrolidin-1-yl)phenyl)acetic Acid] |  |
| 144 | Cc1cc(CC(=O)O)ccc1N1CC[C@H](N[C@H](C)c2cccc3ccccc23)C1 [Compound 3, 2-(3-methyl-4-((S)-3-(((R)-1-(naphthalen-1-yl)ethyl)amino)pyrrolidin-1-yl)phenyl)acetic Acid] |  |
| 100 | C[C@@H](N[C@H]1CCN(c2ccc(CC(=O)O)cc2)C1)c1cccc2ccccc12 [Evocalcet] | hypocalcemia, vomiting, nausea, chills, QT prolongation, mood disturbances, cardiac arrhythmia, hypotension, and cramps |
